Experimental findings from patent US10428083B2, “Heterocyclylmethyl-thienouracile as antagonists of the adenosine-A2B-receptor” (BAYER PHARMA AKTIENGESELLSCHAFT, priority 2015, dated 2019) are described below.

SMILES strings stand for the structures.

In this experiment the target is human adenosine A2b receptor (Homo sapiens (Human), UniProt P29275). Put plainly: Cellular in vitro reporter gene test for A2b receptor activity (CHO-K1, CRE-luciferase, NECA stimulation). In kind it is cell-based. Particulars: recombinant CHO-K1 cell line, CRE-luciferase reporter, antagonism of EC50 concentration of NECA; in some cases means of several determinations, rounded to two significant figures; read-out: A2b receptor IC50. In short, it runs like this:
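CHO-K1 cells with CRE-driven luciferase; antagonists co-incubated with NECA at its EC50, determined in a pre-experiment on each test day. Luciferase read by luminescence 3 h after NECA addition.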

human adenosine A2b receptor, sequence (P29275 whole entry): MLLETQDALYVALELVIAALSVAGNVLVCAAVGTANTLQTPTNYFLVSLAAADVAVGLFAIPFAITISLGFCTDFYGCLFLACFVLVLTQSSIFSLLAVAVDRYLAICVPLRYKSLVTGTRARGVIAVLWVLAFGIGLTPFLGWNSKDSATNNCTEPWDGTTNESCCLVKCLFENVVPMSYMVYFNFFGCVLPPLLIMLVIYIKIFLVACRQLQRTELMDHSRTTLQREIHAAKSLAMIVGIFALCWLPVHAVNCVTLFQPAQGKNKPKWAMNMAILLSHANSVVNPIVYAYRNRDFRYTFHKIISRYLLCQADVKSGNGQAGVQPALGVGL

Consider `COCCn1c(=O)n(CCc2ccccc2)c(=O)c2c(C(F)(F)F)c(CN3CCN(C)C3=O)sc21` [Example 105, 1-(2-Methoxyethyl)-6-[(3-methyl-2-oxoimidazolidin-1-yl)methyl]-3-(2-phenylethyl)-5-(trifluoromethyl)thieno[2,3-d]pyrimidine-2,4(1H,3H)-dione], for which the half-maximal inhibitory concentration (IC50) is 14 nM. Regarding `CCn1c(=O)c2c(C)c(CN3C(=O)CNC3=O)sc2n(CCOC(F)(F)F)c1=O` [Example 106, 6-[(2,5-Dioxoimidazolidin-1-yl)methyl]-3-ethyl-5-methyl-1-[2-(trifluoromethoxy)ethyl]thieno[2,3-d]pyrimidine-2,4(1H,3H)-dione], the IC50 is 9.2 nM. For `CCn1c(=O)c2c(C)c(CN3CCCNC3=O)sc2n(CCC(F)(F)F)c1=O` [Example 107, 3-Ethyl-5-methyl-6-[(2-oxotetrahydropyrimidin-1(2H)-yl)methyl]-1-(3,3,3-trifluoropropyl)thieno[2,3-d]pyrimidine-2,4(1H,3H)-dione], the IC50 was 11 nM. On to `CCn1c(=O)c2c(C)c(CN3CCCN(C)C3=O)sc2n(CCC(F)(F)F)c1=O` [Example 108, 3-Ethyl-5-methyl-6-[(3-methyl-2-oxotetrahydropyrimidin-1(2H)-yl)methyl]-1-(3,3,3-trifluoropropyl)thieno[2,3-d]pyrimidine-2,4(1H,3H)-dione], for which the IC50 was 3.3 nM. On to `C=CCn1cnn(Cc2sc3c(c2C)c(=O)n(CC)c(=O)n3CCC(F)(F)F)c1=O` [Example 110, 6-[(4-Allyl-5-oxo-4,5-dihydro-H-1,2,4-triazol-1-yl)methyl]-3-ethyl-5-methyl-1-(3,3,3-trifluoropropyl)thieno[2,3-d]pyrimidine-2,4(1H,3H)-dione], for which the IC50 amounted to 79 nM.

As for `C=CCn1cnn(Cc2sc3c(c2C)c(=O)n(CC)c(=O)n3CCOC(F)(F)F)c1=O` [Example 111, 6-[(4-Allyl-5-oxo-4,5-dihydro-1H-1,2,4-triazol-1-yl)methyl]-3-ethyl-5-methyl-1-[2-(trifluoromethoxy)ethyl]thieno[2,3-d]pyrimidine-2,4(1H,3H)-dione], the half-inhibitory concentration (IC50) came out at 21 nM. To `C=CCn1cnn(Cc2sc3c(c2C)c(=O)n(CC)c(=O)n3CCOC)c1=O` [Example 112, 6-[(4-Allyl-5-oxo-4,5-dihydro-1H-1,2,4-triazol-1-yl)methyl]-3-ethyl-1-(2-methoxyethyl)-5-methylthieno[2,3-d]pyrimidine-2,4(1H,3H)-dione] belongs 500 nM. On to `CCn1c(=O)c2c(C)c(Cn3nc[nH]c3=O)sc2n(CCOC)c1=O` [Example 114, 3-Ethyl-1-(2-methoxyethyl)-5-methyl-6-[(5-oxo-4,5-dihydro-1H-1,2,4-triazol-1-yl)methyl]thieno[2,3-d]pyrimidine-2,4(1H,3H)-dione], for which the IC50 came out at 39 nM. `CCn1c(=O)c2c(C)c(CN3CCNC3=NC#N)sc2n(CCOC)c1=O` [Example 117, [1-{[3-Ethyl-1-(2-methoxyethyl)-5-methyl-2,4-dioxo-1,2,3,4-tetrahydrothieno[2,3-d]pyrimidin-6-yl]methyl}imidazolidin-2-ylidene]cyanamide]: the half-maximal inhibitory concentration (IC50) is 5.2 nM. Take `CCn1c(=O)c2c(C)c(CN3CCNC(=O)C3=O)sc2n(CCOC)c1=O` [Example 120, 6-[(2,3-Dioxopiperazin-1-yl)methyl]-3-ethyl-1-(2-methoxyethyl)-5-methylthieno[2,3-d]pyrimidine-2,4(1H,3H)-dione]: the IC50 was 12 nM. As for `Cc1c(CN2CCNC(=O)C2=O)sc2c1c(=O)n(CC(C)C)c(=O)n2CCCF` [Example 121, 6-[(2,3-Dioxopiperazin-1-yl)methyl]-1-(3-fluoropropyl)-3-isobutyl-5-methylthieno[2,3-d]pyrimidine-2,4(1H,3H)-dione], the IC50 is 20 nM. To `Cc1c(CN2CCNC(=O)C2=O)sc2c1c(=O)n(CC(F)(F)F)c(=O)n2CCC(F)(F)F` [Example 122, 6-[(2,3-Dioxopiperazin-1-yl)methyl]-5-methyl-3-(2,2,2-trifluoroethyl)-1-(3,3,3-trifluoropropyl)thieno[2,3-d]pyrimidine-2,4(1H,3H)-dione] belongs 3.9 nM.

For `Cc1c(CN2CCNC(=O)C2=O)sc2c1c(=O)n(CC(F)(F)F)c(=O)n2C` [Example 124, 6-[(2,3-Dioxopiperazin-1-yl)methyl]-1,5-dimethyl-3-(2,2,2-trifluoroethyl)thieno[2,3-d]pyrimidine-2,4(1H,3H)-dione], the concentration for half-maximal inhibition (IC50) came out at 60 nM. As to `Cc1c(CN2CCNC(=O)C2=O)sc2c1c(=O)n(CC(F)F)c(=O)n2CCC(F)(F)F` [Example 125, 3-(2,2-Difluoroethyl)-6-[(2,3-dioxopiperazin-1-yl)methyl]-5-methyl-1-(3,3,3-trifluoropropyl)thieno[2,3-d]pyrimidine-2,4(1H,3H)-dione], the half-inhibitory concentration (IC50) was 8.8 nM. On to `CCn1c(=O)c2c(C)c(CN3CC[C@@H](O)C3=O)sc2n(CCC(F)(F)F)c1=O` [Example 126, 3-Ethyl-6-{[(3R)-3-hydroxy-2-oxopyrrolidin-1-yl]methyl}-5-methyl-1-(3,3,3-trifluoropropyl)thieno[2,3-d]pyrimidine-2,4(1H,3H)-dione], for which the IC50 came out at 3.9 nM. Regarding `CCn1c(=O)c2c(C)c(Cn3[nH]ccc3=O)sc2n(CCC(F)(F)F)c1=O` [Example 127, 3-Ethyl-5-methyl-6-[(5-oxo-2,5-dihydro-1H-pyrazol-1-yl)methyl]-1-(3,3,3-trifluoropropyl)thieno[2,3-d]pyrimidine-2,4(1H,3H)-dione], the concentration for half-maximal inhibition (IC50) stood at 5.6 nM. To `CCn1c(=O)c2c(C)c(Cn3[nH]ccc3=O)sc2n(CCOC)c1=O` [Example 128, 3-Ethyl-1-(2-methoxyethyl)-5-methyl-6-[(5-oxo-2,5-dihydro-1H-pyrazol-1-yl)methyl]thieno[2,3-d]pyrimidine-2,4(1H,3H)-dione] belongs 4.7 nM; to `Cc1c(Cn2[nH]ccc2=O)sc2c1c(=O)n(C(C)C)c(=O)n2CCC(F)(F)F` [Example 132, 3-Isopropyl-5-methyl-6-[(5-oxo-2,5-dihydro-1H-pyrazol-1-yl)methyl]-1-(3,3,3-trifluoropropyl)thieno[2,3-d]pyrimidine-2,4(1H,3H)-dione], 20 nM; to `COCCn1c(=O)n(C(C)C)c(=O)c2c(C)c(Cn3[nH]ccc3=O)sc21` [Example 133, 3-Isopropyl-1-(2-methoxyethyl)-5-methyl-6-[(5-oxo-2,5-dihydro-1H-pyrazol-1-yl)methyl]thieno[2,3-d]pyrimidine-2,4(1H,3H)-dione], 26 nM. Regarding `CCn1c(=O)c2c(C)c(CN3CCNC3=S)sc2n(CC(F)F)c1=O` [Example 137, 1-(2,2-Difluoroethyl)-3-ethyl-5-methyl-6-[(2-thioxoimidazolidin-1-yl)methyl]thieno[2,3-d]pyrimidine-2,4(1H,3H)-dione], the 50% inhibitory concentration (IC50) was determined as 10 nM. Regarding `CCn1c(=O)c2c(C)c(CN3CCNC3=S)sc2n(CCOC2CC2)c1=O` [Example 138, 1-[2-(Cyclopropyloxy)ethyl]-3-ethyl-5-methyl-6-[(2-thioxoimidazolidin-1-yl)methyl]thieno[2,3-d]pyrimidine-2,4(1H,3H)-dione], the IC50 was 12 nM. As to `Cc1c(CN2CCNC2=S)sc2c1c(=O)n(CC(C)C)c(=O)n2CC(F)F` [Example 143], the concentration for half-maximal inhibition (IC50) came out at 3 nM.

Regarding `Cc1c(CN2CCNC2=S)sc2c1c(=O)n(CC(C)C)c(=O)n2CCCF` [Example 144, 1-(3-Fluoropropyl)-3-isobutyl-5-methyl-6-[(2-thioxoimidazolidin-1-yl)methyl]thieno[2,3-d]pyrimidine-2,4(1H,3H)-dione], the IC50 came to 1.5 nM. For `CCOCCn1c(=O)n(CC(C)C)c(=O)c2c(C)c(CN3CCNC3=S)sc21` [Example 145, 1-(2-Ethoxyetyl)-3-isobutyl-5-methyl-6-[(2-thioxoimidazolidin-1-yl)methyl]thieno[2,3-d]pyrimidine-2,4(1H,3H)-dione] the value was 14 nM. As to `Cc1c(CN2CCNC2=S)sc2c1c(=O)n(CC(C)(C)C)c(=O)n2CCC(F)(F)F` [Example 149, 3-(2,2-Dimethylpropyl)-5-methyl-6-[(2-thioxoimidazolidin-1-yl)methyl]-1-(3,3,3-trifluoropropyl)thieno[2,3-d]pyrimidine-2,4(1H,3H)-dione], the IC50 turned out to be 5.1 nM. In the case of `Cc1c(CN2CCNC2=S)sc2c1c(=O)n(CC(C)(C)C)c(=O)n2CCCF` [Example 150, 3-(2,2-Dimethylpropyl)-1-(3-fluoropropyl)-5-methyl-6-[(2-thioxoimidazolidin-1-yl)methyl]thieno[2,3-d]pyrimidine-2,4(1H,3H)-dione], the IC50 amounted to 6 nM. For `COCCn1c(=O)n(CC(C)(C)C)c(=O)c2c(C)c(CN3CCNC3=S)sc21` [Example 151, 3-(2,2-Dimethylpropyl)-1-(2-methoxyethyl)-5-methyl-6-[(2-thioxoimidazolidin-1-yl)methyl]thieno[2,3-d]pyrimidine-2,4(1H,3H)-dione] the value was 5.7 nM. In the case of `Cc1c(CN2CCNC2=S)sc2c1c(=O)n(CC(F)(F)F)c(=O)n2CCC(F)(F)F` [Example 152, 5-Methyl-6-[(2-thioxoimidazolidin-1-yl)methyl]-3-(2,2,2-trifluoroethyl)-1-(3,3,3-trifluoropropyl)thieno[2,3-d]pyrimidine-2,4(1H,3H)-dione], the concentration for half-maximal inhibition (IC50) came to 0.79 nM. `CCOCCn1c(=O)n(CC(F)(F)F)c(=O)c2c(C)c(CN3CCNC3=S)sc21` [Example 153, 1-(2-Ethoxyethyl)-5-methyl-6-[(2-thioxoimidazolidin-1-yl)methyl]-3-(2,2,2-trifluoroethyl)thieno[2,3-d]pyrimidine-2,4(1H,3H)-dione]: the IC50 worked out at 6.4 nM. Consider `Cc1c(CN2CCNC2=S)sc2c1c(=O)n(CC(F)(F)F)c(=O)n2CC1COC1` [Example 158, 5-Methyl-1-(oxetan-3-ylmethyl)-6-[(2-thioxoimidazolidin-1-yl)methyl]-3-(2,2,2-trifluoroethyl)thieno[2,3-d]pyrimidine-2,4(1H,3H)-dione], for which the IC50 was 5.5 nM.
